Experimental data: article PMC5463454 (Cancer discovery, 2016)
Values joined by “and” are separate entries in the source; they are usually repeats but may differ in a detail not shown here. Equal values may be shown once.

Test: clinical
Assay type: in vivo
Conditions: for half-life / AUC(0-t) / Cmax / Tmax: human, plasma, oral
[1] = 100 mg (n = 2), steady state, individual values
[2] = 100 mg, Day 15, 100 mg (n = 2), steady state, individual values

CC(C)NC[C@@H](C(=O)N1CCN(c2ncnc3c2[C@H](C)C[C@H]3O)CC1)c1ccc(Cl)cc1 [Ipatasertib]
Accumulation ratio, AUC0–24,ss (day 15)/AUC0–24 (day 1) (25 mg (n = 3), geometric mean (%CV)): 2.78 (15.7%)
Accumulation ratio, AUC0–24,ss (day 15)/AUC0–24 (day 1) (50 mg (n = 3), geometric mean (%CV)): 2.43 (32.1%)
AUC0–24,ss, Day 15 [1]: 568 ng·h/mL and 239 ng·h/mL
Cmax, Day 15 [1]: 53.0 ng/mL
Accumulation ratio, AUC0–24,ss (day 15)/AUC0–24 (day 1) (100 mg (n = 2), individual values): 2.57 and 0.927
clinical exposure relative to preclinical efficacy (100 mg, most sensitive preclinical models): equivalent to TGI 60
Accumulation ratio, AUC0–24,ss (day 15)/AUC0–24 (day 1) (200 mg (n = 3), geometric mean (%CV)): 2.44 (28.1%)
Accumulation ratio, AUC0–24,ss (day 15)/AUC0–24 (day 1) (400 mg (n = 3), geometric mean (%CV)): 1.95 (36.5%)
t1/2, Day 1 (600 mg (n = 7), single dose, geometric mean (range)): 45.8 (36.7–55.0) h
Accumulation ratio, AUC0–24,ss (day 15)/AUC0–24 (day 1) (600 mg (n = 7), geometric mean (%CV)): 1.80 (73.6%)
Accumulation ratio, AUC0–24,ss (day 15)/AUC0–24 (day 1) (800 mg (n = 5), geometric mean (%CV)): 2.22 (20.0%)
mean accumulation ratio (AUC0–24,ss/AUC0–24, day 1), range over doses (doses of 200 mg to 800 mg): 1.80 to 2.44
half-life: 31.9 to 53 h
half-life (25 mg): 4.46 h
AUC(0-t) (25 mg, AUC0–24, Day 1, 25 mg (n = 3), single dose, geometric mean (%CV)): 31.8 ng·h/mL
AUC(0-t) (25 mg, AUC0–24,ss, Day 15, 25 mg (n = 3), steady state, geometric mean (%CV)): 88.3 ng·h/mL
Cmax (25 mg, Day 1, 25 mg (n = 3), single dose, geometric mean (%CV)): 8.93 ng/mL
Cmax (25 mg, Day 15, 25 mg (n = 3), steady state, geometric mean (%CV)): 8.92 ng/mL
Tmax (25 mg, Day 1, 25 mg (n = 3), single dose, median (range)): 0.5 h
Tmax (25 mg, Day 15, 25 mg (n = 3), steady state, median (range)): 0.5 h
half-life (50 mg): 10.1 h
AUC(0-t) (50 mg, AUC0–24, Day 1, 50 mg (n = 3), single dose, geometric mean (%CV)): 70.3 ng·h/mL
AUC(0-t) (50 mg, AUC0–24,ss, Day 15, 50 mg (n = 3), steady state, geometric mean (%CV)): 171 ng·h/mL
Cmax (50 mg, Day 1, 50 mg (n = 3), single dose, geometric mean (%CV)): 13.3 ng/mL
Cmax (50 mg, Day 15, 50 mg (n = 3), steady state, geometric mean (%CV)): 33.9 ng/mL
Tmax (50 mg, Day 1, 50 mg (n = 3), single dose, median (range)): 2.92 h
Tmax (50 mg, Day 15, 50 mg (n = 3), steady state, median (range)): 1 h
half-life (100 mg): 31.9 h
AUC(0-t) (100 mg, AUC0–24, Day 1, 100 mg (n = 3), single dose, geometric mean (%CV)): 260 ng·h/mL
Cmax (100 mg, Day 1, 100 mg (n = 3), single dose, geometric mean (%CV)): 59.8 ng/mL
Cmax [2]: 76.2 ng/mL
Tmax (100 mg, Day 1, 100 mg (n = 3), single dose, median (range)): 2.97 h
Tmax [2]: 0.5 to 0.67 h
half-life (200 mg): 39.1 h
AUC(0-t) (200 mg, AUC0–24, Day 1, 200 mg (n = 3), single dose, geometric mean (%CV)): 726 ng·h/mL
AUC(0-t) (200 mg, AUC0–24,ss, Day 15, 200 mg (n = 3), steady state, geometric mean (%CV)): 1770 ng·h/mL
Cmax (200 mg, Day 1, 200 mg (n = 3), single dose, geometric mean (%CV)): 130 ng/mL
Cmax (200 mg, Day 15, 200 mg (n = 3), steady state, geometric mean (%CV)): 183 ng/mL
Tmax (200 mg, Day 1, 200 mg (n = 3), single dose, median (range)): 3 h
Tmax (200 mg, Day 15, 200 mg (n = 3), steady state, median (range)): 1 h
half-life (400 mg): 53 h
AUC(0-t) (400 mg, AUC0–24, Day 1, 400 mg (n = 3), single dose, geometric mean (%CV)): 1650 ng·h/mL
AUC(0-t) (400 mg, AUC0–24,ss, Day 15, 400 mg (n = 3), steady state, geometric mean (%CV)): 3210 ng·h/mL
Cmax (400 mg, Day 1, 400 mg (n = 3), single dose, geometric mean (%CV)): 506 ng/mL
Cmax (400 mg, Day 15, 400 mg (n = 3), steady state, geometric mean (%CV)): 838 ng/mL
Tmax (400 mg, Day 1, 400 mg (n = 3), single dose, median (range)): 1 h
Tmax (400 mg, Day 15, 400 mg (n = 3), steady state, median (range)): 1 h
half-life (600 mg): 45.8 h
AUC(0-t) (600 mg, AUC0–24, Day 1, 600 mg (n = 7), single dose, geometric mean (%CV)): 2670 ng·h/mL
AUC(0-t) (600 mg, AUC0–24,ss, Day 15, 600 mg (n = 7), steady state, geometric mean (%CV)): 4450 ng·h/mL
Cmax (600 mg, Day 1, 600 mg (n = 7), single dose, geometric mean (%CV)): 488 ng/mL
Cmax (600 mg, Day 15, 600 mg (n = 7), steady state, geometric mean (%CV)): 748 ng/mL
Tmax (600 mg, Day 1, 600 mg (n = 7), single dose, median (range)): 0.58 h
Tmax (600 mg, Day 15, 600 mg (n = 7), steady state, median (range)): 0.83 h
half-life (800 mg): 43.8 h
AUC(0-t) (800 mg, AUC0–24, Day 1, 800 mg (n = 7), single dose, geometric mean (%CV)): 3220 ng·h/mL
AUC(0-t) (800 mg, AUC0–24,ss, Day 15, 800 mg (n = 5), steady state, geometric mean (%CV)): 6670 ng·h/mL
Cmax (800 mg, Day 1, 800 mg (n = 7), single dose, geometric mean (%CV)): 479 ng/mL
Cmax (800 mg, Day 15, 800 mg (n = 5), steady state, geometric mean (%CV)): 879 ng/mL
Tmax (800 mg, Day 1, 800 mg (n = 7), single dose, median (range)): 2 h
Tmax (800 mg, Day 15, 800 mg (n = 5), steady state, median (range)): 3 h
